# The source made the active and inactive calls.
# Experiments:
# [1] = target: T1, Rac GTPase-activating protein 1 (Homo sapiens, UniProt Q9H0H5); test: MgcRacGAP GTPase-activating activity inhibitors, confirmation, biochemical, ADP Hunter fluorescence, primary and confirmatory (AID 624330); type: functional
# T1 sequence (Q9H0H5 whole entry): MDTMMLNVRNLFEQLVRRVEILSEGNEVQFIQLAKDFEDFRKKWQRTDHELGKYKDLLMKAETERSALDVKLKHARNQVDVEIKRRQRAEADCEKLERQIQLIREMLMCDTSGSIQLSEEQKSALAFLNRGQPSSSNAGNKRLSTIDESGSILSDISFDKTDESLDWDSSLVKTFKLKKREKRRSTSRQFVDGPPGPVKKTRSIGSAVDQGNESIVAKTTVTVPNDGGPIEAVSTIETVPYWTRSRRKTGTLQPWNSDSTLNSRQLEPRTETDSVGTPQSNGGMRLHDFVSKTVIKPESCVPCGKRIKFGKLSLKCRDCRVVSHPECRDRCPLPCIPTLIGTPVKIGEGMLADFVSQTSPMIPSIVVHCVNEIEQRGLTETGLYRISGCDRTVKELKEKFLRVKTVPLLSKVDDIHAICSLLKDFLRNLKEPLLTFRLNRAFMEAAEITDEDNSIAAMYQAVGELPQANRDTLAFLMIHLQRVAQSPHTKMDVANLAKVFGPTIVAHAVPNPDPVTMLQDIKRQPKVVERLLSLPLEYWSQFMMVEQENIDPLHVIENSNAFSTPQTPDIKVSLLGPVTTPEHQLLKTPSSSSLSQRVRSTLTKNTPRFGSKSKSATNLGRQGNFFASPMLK
# [2] = target: Glucose-6-phosphate 1-dehydrogenase (Homo sapiens, UniProt P11413); test: human G6PD enzyme inhibitors, dose response, selectivity assay for P. falciparum G6PD inhibitor project, biochemical, fluorescence (AID 504792); type: functional
# Glucose-6-phosphate 1-dehydrogenase, sequence (P11413 whole entry): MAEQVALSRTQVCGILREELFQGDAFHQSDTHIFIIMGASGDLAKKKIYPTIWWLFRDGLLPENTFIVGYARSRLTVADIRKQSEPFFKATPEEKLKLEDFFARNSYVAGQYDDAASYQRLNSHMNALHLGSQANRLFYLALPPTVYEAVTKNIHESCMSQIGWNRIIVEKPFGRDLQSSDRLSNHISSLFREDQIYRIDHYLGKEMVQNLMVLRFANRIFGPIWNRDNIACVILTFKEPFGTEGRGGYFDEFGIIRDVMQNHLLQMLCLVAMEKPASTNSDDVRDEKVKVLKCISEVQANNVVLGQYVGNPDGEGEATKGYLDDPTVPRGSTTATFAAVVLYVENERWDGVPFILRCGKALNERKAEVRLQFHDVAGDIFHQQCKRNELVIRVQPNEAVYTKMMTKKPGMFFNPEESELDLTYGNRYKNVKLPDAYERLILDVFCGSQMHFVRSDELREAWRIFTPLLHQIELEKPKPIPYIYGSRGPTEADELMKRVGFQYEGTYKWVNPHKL
# [3] = CRF-BP/CRF-R2 complex antagonists, dose response, cell-based, uHTS hits, 384-well (AID 651639); type: functional, Homo sapiens; conditions: read-out: IC50_Mean
# [4] = target: T2, DNA repair and recombination protein RAD54-like (Homo sapiens, UniProt Q92698); test: inhibitors of human RAD54 branch migration, confirmation, biochemical, fluorescence, cherry-picked samples, dose series (AID 651657); type: functional
# T2 sequence (Q92698 whole entry): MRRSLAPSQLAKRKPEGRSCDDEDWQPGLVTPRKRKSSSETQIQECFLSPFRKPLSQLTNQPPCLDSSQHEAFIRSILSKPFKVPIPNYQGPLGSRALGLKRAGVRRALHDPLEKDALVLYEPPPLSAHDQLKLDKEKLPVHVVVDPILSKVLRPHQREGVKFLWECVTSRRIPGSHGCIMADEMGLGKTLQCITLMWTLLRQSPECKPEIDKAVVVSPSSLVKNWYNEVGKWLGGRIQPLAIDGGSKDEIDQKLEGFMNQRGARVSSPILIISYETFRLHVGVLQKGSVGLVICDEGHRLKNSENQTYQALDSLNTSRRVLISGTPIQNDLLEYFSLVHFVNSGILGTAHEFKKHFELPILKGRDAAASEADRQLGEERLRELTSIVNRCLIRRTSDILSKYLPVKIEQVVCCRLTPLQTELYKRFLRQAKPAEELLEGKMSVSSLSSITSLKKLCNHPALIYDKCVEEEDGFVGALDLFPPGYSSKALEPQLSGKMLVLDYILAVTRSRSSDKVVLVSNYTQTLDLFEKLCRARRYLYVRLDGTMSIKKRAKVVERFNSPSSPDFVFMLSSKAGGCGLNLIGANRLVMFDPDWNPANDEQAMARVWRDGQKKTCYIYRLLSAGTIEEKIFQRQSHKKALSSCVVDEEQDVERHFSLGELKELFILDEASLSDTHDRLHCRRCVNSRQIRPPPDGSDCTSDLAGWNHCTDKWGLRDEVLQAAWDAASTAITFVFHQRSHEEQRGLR
# [5] = cytotoxicity toward NIH3T3 fibroblasts, dose response, counter-screen, cell-based, ATP luminescence, mouse fibroblasts (AID 2010); type: functional;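 also: cells exposed to compound for about 90 hours before reading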
# [6] = inhibitors of intracellular T. cruzi replication, confirmation, NIH3T3 host cells, beta-gal luminescence (AID 2044); type: functional, cell-based;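 also: intracellular parasites grown in NIH/3T3 mouse fibroblasts as host cells; luminescent beta-galactosidase reporter signal from transgenic T. cruzi replicating inside host cells; inhibitors lower the luminescence signal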
# [7] = target: T3, Apoptotic protease-activating factor 1 (Homo sapiens, UniProt O14727); test: SAR analysis of small molecule Activators of Apaf-1 in a Fluorescent assay.; type: functional; conditions: read-out: EC50_Mean;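 also: caspase-3 cleavage of fluorogenic Rh110 DEVD substrate downstream of apoptosome activation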
# T3 sequence (O14727 whole entry): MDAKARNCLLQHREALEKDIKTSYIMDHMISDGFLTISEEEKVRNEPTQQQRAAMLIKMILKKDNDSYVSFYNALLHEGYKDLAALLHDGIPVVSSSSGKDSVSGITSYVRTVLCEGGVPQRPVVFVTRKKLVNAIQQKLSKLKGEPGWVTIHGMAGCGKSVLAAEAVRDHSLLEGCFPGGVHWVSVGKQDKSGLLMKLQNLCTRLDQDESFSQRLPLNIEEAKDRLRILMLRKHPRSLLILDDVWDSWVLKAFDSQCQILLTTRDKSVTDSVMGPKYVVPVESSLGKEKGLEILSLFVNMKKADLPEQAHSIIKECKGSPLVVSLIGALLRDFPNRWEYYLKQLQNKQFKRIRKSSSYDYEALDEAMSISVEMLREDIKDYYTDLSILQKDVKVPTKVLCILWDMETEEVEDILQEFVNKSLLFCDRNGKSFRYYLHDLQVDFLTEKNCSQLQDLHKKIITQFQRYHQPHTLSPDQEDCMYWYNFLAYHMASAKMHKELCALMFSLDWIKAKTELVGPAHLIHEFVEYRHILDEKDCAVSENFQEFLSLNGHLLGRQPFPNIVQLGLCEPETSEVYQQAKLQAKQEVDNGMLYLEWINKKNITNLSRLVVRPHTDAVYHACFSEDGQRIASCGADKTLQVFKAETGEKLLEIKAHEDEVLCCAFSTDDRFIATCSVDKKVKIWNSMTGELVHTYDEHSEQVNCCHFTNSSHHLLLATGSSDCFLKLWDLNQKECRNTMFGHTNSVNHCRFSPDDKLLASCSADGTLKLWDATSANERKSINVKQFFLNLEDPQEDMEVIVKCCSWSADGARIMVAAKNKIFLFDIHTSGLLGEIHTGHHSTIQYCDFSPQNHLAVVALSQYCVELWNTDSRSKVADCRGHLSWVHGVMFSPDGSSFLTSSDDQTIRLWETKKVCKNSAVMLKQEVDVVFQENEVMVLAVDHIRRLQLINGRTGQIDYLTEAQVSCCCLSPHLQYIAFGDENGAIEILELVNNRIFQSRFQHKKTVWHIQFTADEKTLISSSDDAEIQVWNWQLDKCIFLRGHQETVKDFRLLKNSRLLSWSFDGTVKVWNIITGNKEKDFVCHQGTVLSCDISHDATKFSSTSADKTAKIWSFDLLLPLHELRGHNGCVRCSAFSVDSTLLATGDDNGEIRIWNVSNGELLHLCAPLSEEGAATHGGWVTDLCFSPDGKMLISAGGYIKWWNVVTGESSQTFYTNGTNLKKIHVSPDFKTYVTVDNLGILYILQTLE
# [8] = target: Heat shock protein HSP 90-alpha (Homo sapiens, UniProt P07900); type: functional, organism-based
# [9] = growth suppression of PTEN-null colon cells, dose response, cell-based, HCT116 PTEN knockout (AID 1047); type: functional;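 also: HCT116 colon tumor cells with PTEN knocked out; cells exposed to compound for 60 hours before readout; potency for loss of cell viability measured by luminescence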
# [10] = target: Eukaryotic translation initiation factor 4E (Mus musculus, UniProt P63073); test: eIF4E–eIF4G protein interaction inhibitors, dose response, biochemical, TR-FRET (AID 855); type: functional;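 also: potency for disrupting eIF4E binding to eIF4GI seen as loss of FRET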
# Eukaryotic translation initiation factor 4E, sequence (P63073 whole entry): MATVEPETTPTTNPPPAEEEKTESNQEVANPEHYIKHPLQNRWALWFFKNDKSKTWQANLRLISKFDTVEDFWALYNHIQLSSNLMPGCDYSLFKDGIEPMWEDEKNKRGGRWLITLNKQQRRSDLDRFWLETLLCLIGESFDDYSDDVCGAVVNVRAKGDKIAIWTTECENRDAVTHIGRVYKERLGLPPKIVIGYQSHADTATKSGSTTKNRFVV
# [11] = cytotoxicity in HEK-293T cells, dose response, cytotoxicity control for TCR NF-kB inhibitor project, luminescence, T-cell screen hits (AID 489026); type: functional, cell-based;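 also: cells exposed to compound about 14 hours before the viability readout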
# Melanocortin receptor 4 = Melanocortin receptor 4 (Homo sapiens, UniProt P32245); type: functional, cell-based;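 also: Cell-based assay with luminescence read-out, confirmatory dose-response testing for agonist activity of biased ligands at MC4R; human U2OS cells with tagged receptor and beta-arrestin; potency of agonists that increase receptor coupling to beta-arrestin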
# Melanocortin receptor 4, sequence (P32245 whole entry): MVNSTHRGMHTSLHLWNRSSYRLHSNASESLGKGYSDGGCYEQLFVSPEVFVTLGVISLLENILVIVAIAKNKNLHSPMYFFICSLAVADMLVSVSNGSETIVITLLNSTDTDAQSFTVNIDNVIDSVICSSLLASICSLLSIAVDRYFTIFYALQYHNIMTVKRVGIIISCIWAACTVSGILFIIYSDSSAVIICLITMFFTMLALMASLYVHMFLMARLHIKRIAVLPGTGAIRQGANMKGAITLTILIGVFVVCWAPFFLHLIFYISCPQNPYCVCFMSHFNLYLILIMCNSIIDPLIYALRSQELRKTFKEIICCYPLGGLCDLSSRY
# [12] = target: T4, Ubiquitin-conjugating enzyme E2 N (Homo sapiens, UniProt P61088); type: functional;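 also: Dose-response confirmation in a TR-FRET assay detecting UBC13-driven polyubiquitin chain formation, inhibition measured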
# T4 sequence (P61088 whole entry): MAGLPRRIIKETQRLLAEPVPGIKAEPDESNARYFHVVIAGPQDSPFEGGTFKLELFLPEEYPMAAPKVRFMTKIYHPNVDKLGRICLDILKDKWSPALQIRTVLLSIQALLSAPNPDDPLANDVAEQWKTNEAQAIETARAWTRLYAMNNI
# [13] = growth suppression of beta-catenin-knockout colon cells, dose response, cell-based, HCT116, human colon tumor (AID 1045); type: functional;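 also: HCT116 colon tumor cells with beta catenin knocked out; cells exposed to compound for 60 hours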
# [14] = target: T5, Carboxy-terminal domain RNA polymerase II polypeptide A small phosphatase 1 (Homo sapiens, UniProt Q9GZU7); test: inhibitors of CTDSP1, concentration-response testing, biochemical assay, absorbance-based, actives from ultra-high-throughput screening (AID 540297); type: functional
# T5 sequence (Q9GZU7 whole entry): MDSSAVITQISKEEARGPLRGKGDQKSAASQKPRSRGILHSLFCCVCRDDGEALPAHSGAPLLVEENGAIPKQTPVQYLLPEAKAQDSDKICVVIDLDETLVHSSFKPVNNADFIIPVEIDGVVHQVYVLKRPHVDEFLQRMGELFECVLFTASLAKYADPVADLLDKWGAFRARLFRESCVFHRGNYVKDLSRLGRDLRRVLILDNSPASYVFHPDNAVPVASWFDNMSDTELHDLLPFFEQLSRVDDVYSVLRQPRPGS
# [15] = target: DNA dC->dU-editing enzyme APOBEC-3A (Homo sapiens, UniProt P31941); test: Dose Response confirmation of small molecule APOBEC3A DNA Deaminase Inhibitors via a fluorescence-based single-stranded DNA deaminase assay. [Related pubchem assays (depositor defined):AID493011, AID493024]; type: functional
# DNA dC->dU-editing enzyme APOBEC-3A, sequence (P31941 whole entry): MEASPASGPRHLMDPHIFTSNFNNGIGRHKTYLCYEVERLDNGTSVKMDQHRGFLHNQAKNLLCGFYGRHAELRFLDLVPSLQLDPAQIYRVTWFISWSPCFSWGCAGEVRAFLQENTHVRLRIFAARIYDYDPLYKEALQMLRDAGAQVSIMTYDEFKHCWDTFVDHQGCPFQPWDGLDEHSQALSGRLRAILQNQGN
# [16] = target: DNA dC->dU-editing enzyme APOBEC-3G (Homo sapiens, UniProt Q9HC16); type: functional;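 also: Dose-response counterscreen measuring inhibition of APOBEC3G DNA deaminase activity, run while confirming APOBEC3A inhibitors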
# DNA dC->dU-editing enzyme APOBEC-3G, sequence (Q9HC16 whole entry): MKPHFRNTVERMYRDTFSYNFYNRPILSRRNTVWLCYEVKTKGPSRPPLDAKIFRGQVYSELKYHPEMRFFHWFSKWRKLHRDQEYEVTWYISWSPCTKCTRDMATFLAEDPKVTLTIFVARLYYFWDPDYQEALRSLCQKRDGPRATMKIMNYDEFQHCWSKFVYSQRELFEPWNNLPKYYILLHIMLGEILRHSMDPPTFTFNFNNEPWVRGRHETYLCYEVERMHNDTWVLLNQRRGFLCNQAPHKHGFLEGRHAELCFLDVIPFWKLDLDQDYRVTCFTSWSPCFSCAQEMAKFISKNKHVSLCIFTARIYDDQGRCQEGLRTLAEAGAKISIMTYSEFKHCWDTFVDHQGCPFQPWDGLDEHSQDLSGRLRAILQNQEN
# HEK293 = test: inhibitors of LMP1-driven NF-kB reporter, dose response, cell-based, HEK293, luciferase, cherry-pick (AID 588343); type: functional; conditions: Homo sapiens
# H9c2 = test: cells; type: functional, cell-based; conditions: Rattus norvegicus, H9c2, Myocardium;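 also: confirmatory concentration-response retest of ultra-high-throughput screening hits for modulation of myocardial damage; cell death induced by hydrogen peroxide oxidative stress; compound pretreatment for 60 min then peroxide exposure for 2 h; potency is for protecting the cells against peroxide damage rather than for killing them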
# H4 = test: Luminescence Cell-Based Dose Response HTS to Identify Activators of 5'UTR Stem-Loop Driven Prion Protein mRNA Translation in H4 Neuroglioblastoma Cells. [Related pubchem assays: 1829 (Project Summary), 1814 (Primary HTS)]; type: functional; conditions: Homo sapiens
# [17] = Luminescence Cell-Based Dose Response HTS to Identify Activators of Luciferase Translation or Activity in H4 […] Cells. [Related pubchem assays: 1829 (Project Summary), 1814 (Primary HTS)]; type: functional
# [18] = microbe, parasite or virus in culture; type: functional; conditions: Mycobacterium tuberculosis
# [19] = Luminescence Cell-Based Dose Confirmation HTS to Identify Activators of 5'UTR Stem-Loop Driven Alpha-Synuclein mRNA Translation in H4 Neuroglioblastoma Cells. [Related pubchem assays: 1829 (Project Summary), 1814 (Primary HTS)]; type: functional
# [20] = target: T6, Low molecular weight phosphotyrosine protein phosphatase (Homo sapiens, UniProt P24666); type: functional; conditions: read-out: IC50_Mean;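 also: Dose-response confirmation assay measuring inhibition of LMPTP enzyme activity by fluorescence intensity read-out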
# T6 sequence (P24666 whole entry): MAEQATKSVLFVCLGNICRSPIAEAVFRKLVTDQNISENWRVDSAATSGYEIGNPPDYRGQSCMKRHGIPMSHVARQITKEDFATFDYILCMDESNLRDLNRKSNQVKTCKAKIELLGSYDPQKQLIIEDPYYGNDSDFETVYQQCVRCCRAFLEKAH
smiles,measurement,setting,value
COc1cc(Sc2ccc(C)cc2)c(OC)cc1N,IC50,[1],24.8 µM (active)
same,IC50,[2],> 80 µM (inactive)
COc1ccc(C(=O)O/N=C(\N)Cc2ccc(Cl)c(Cl)c2)cc1OC,IC50,[3],5.1 µM (active)
CN(C)CCN(C(=O)CN1C(=O)c2ccccc2C1=O)c1nc2cc3c(cc2s1)OCCO3,AC50,[4],57.6 µM (active)
same,EC50,cells,0.163 µM (active)
same,EC50,[5],> 60 µM (not active)
same,EC50,[6],< 0.1 µM (active)
CC1CCCC(C)N1C(=O)C1CC(c2ccc(F)cc2)=NO1 (stereo not given),EC50,[7],> 100 µM (inactive)
CCCCCCCCCCCCCCCC[n+]1ccc(C=NO)cc1,AC50,[8],3.1 µM (active)
same,EC50,[9],1.26 µM (active)
same,IC50,[10],12.7 µM (active)
same,IC50,[11],67.7 µM (inactive)
same,EC50,Melanocortin receptor 4,> 3.3 µM (active)
same,IC50,[12],> 20 µM (inactive)
same,EC50,[13],0.884 µM (active)
CCn1c2c(c(C)[n+]1CC)C(=O)CC(C)(C)C2,IC50,[14],18.9 µM (active)
same,IC50,[15],1.89 µM (active)
same,IC50,[16],3.74 µM (active)
Cc1cccc(Cn2cc(C=O)c3ccccc32)c1,AC50,HEK293,33.3 µM (active)
CN(C)CCN(C(=O)c1ccco1)c1nc2cc3c(cc2s1)OCCO3,AC50,[4],30.6 µM (active)
Cc1ccc(C)c(Cn2c(O)c(N=NC(S)=Nc3ccccc3F)c3ccccc32)c1,EC50,[5],> 60 µM (not active)
same,EC50,[6],1.17 µM (active)
same,AC50,HEK293,2.44 µM (active)
CC(=O)Nc1cc(-c2ccc(C(=O)NC3CC3)cc2)cn2c(-c3cccc(C(C)=O)c3)cnc12,EC50,Melanocortin receptor 4,> 89.2 µM (inactive)
same,IC50,H9c2,16.3 µM (active)
COc1cc(-c2cc(NC=O)c3ncc(-c4ccccc4)n3c2)cc(OC)c1OC,EC50,Melanocortin receptor 4,> 89.2 µM (inactive)
same,IC50,H9c2,> 79 µM (inactive)
CCc1ccc(-c2ccc(=O)[nH]n2)cc1S(=O)(=O)CCC(=O)Nc1ccccc1OC,EC50,[7],> 100 µM (inactive)
O=C1CC2(CC(c3c(F)cccc3Cl)=NO2)C(=O)N1c1ccccc1 (stereo not given),EC50,[7],> 100 µM (inactive)
FC(F)(F)c1ccc(Nc2nnnc3ccccc23)cc1,EC50,H4,6.68 µM (active)
same,EC50,[17],38 µM (active)
same,IC50,[14],8.61 µM (active)
same,CC50,[18],> 40 µM (active)
same,EC50,[19],7.83 µM (active)
same,IC50,[20],6.59 µM (active)

# — ChEMBL document CHEMBL1201862, “PubChem BioAssay data set” (2004)
